Measured values: US20250000843A1, “LIGNAN-INSPIRED COMPOUNDS, METHODS OF MAKING, AND USING THEREOF” (IOWAIBO, INC., priority 2023, published 2025)

Experiments:
[1] = test system: MCF7 (human breast cancer cell line); assay: MTT toxicity assay in MCF7 breast cancer cells; assay type: cell-based
Method: Toxicity of the dibenzyl butyl lactone derivative (3-[(3,4-dimethoxyphenyl)cyclopentyl], 4-[(3-hydroxyphenol)methyl]oxolan-2-one) in breast cancer cells was evaluated using MTT assay. The MTT toxicity test is a colorimetric assay to measure cells' metabolic activity by serving as a substrate of cellular enzymes that reduce the tetrazolium orange dye, MTT (3-(4,5-Dimethylthiazol-2-yl)-2,5-diphenyltetrazolium bromide) to its insoluble, formazan, giving a purple color. The rate of conversion is directly proportional to cells' mitochondrial metabolic activity via NAD (P) H-dependent cellular oxidoreductase enzymes and serves as a surrogate marker of cell viability.
Cultures of MCF7 (human breast cancer cell line) working stock (5 passages) were established under standard culture conditions in Eagle's minimum essential medium (EMEM). EMEM was supplemented with 10% fetal bovine serum (FBS), 2 mM Glutamine and Pen/Strep, and Penicillin 0.01 mg/ml.
Cells previously expanded were seeded in 96 well plates at 1.9×10^5 and 9.6×10^4 cells/plate for 24- and 72-hours treatment respectively. This concentration is known to show the best window for the MTT assay, with better sensitivity and low variability.
5 mg of powdered enterolactone, dibenzyl butyl lactone derivative enantiomer A, and dibenzyl butyl lactone derivative enantiomer B were dissolved in 500 μl of DMSO at room temperature. Eight-point curves, ⅓ dilutions (highest concentration 125 μM), were prepared.
Twenty-four hours following the seeding process, the cells were washed once with phosphate buffered saline (PBS) and treated with the respective compounds in cell culture media. Each condition was tested in triplicates. For positive and negative controls, 8 mM methyl methane sulfonate (MMS) and DMSO 100% were used respectively.
Following compound addition, the plates were incubated for 24 and 72 hours. After the treatment period, cells were washed twice with PBS and media was replaced with MTT reagent at 0.5 mg/ml in Dulbecco's modified Eagle medium (DMEM) without phenol red. The plates were gently shaken and incubated for 4 hours. After the incubation the medium was removed and replaced by DMSO. The plates were gently shaken to solubilize the formazan crystals. Absorbance was measured using an Envision multiplate reader at a wavelength of 570 nm.
Eight serial dilutions were prepared (125.00, 41.67, 13.89, 4.63, 1.54, 0.51, 0.17 and 0.06 µM to evaluate the compounds (in triplicate). MTT results showing cell death values above 20% are considered as having a significant toxic effect.
MTT assay results are shown in Tables 2-7 and expressed as the percentage of cell death after treatment.

[2] = test system: human induced pluripotent stem (iPS) cells; assay type: cell-based; details: human
Method: The dibenzyl butyl lactone derivative enantiomer A and B were compared to enterolactone and tested to determine toxicity using a human pluripotent stem (hPS) cell-based assay that predicts the developmental toxicity potential. […] The current study was conducted using human induced pluripotent stem (iPS) cells.
The impact of test article exposure on ornithine and cystine metabolism in human induced pluripotent stem (iPS) cells was measured for three test articles (dibenzyl butyl lactone derivative enantiomer A, dibenzyl butyl lactone derivative enantiomer B, and enterolactone) and prediction of the potential for developmental toxicity was made through application of the hPS cell-based assay. Exposure spanned a range of eight treatment levels per test article ranging from 0.03-100 μM.
The observed decrease in the o/c ratio following exposure to each test article is indicative of the potential for developmental toxicity and/or embryo lethality in vivo at or above the dTP concentration. FIGS. 15A-C show the o/c ratio of dibenzyl butyl lactone derivative enantiomer A (FIG. 15A), dibenzyl butyl lactone derivative enantiomer B (FIG. 15B), and (+/−) enterolactone (FIG. 15C). The graphs in FIGS. 15A-C show the cell viability and o/c/ ratio over concentrations of 0.03-100 μM with the straight horizontal line illustrating the developmental toxicity threshold of 0.85.

For `O=C1OCC(Cc2ccc3c(c2)OCO3)/C1=C\c1cccc(O)c1` (single isomer, unassigned) [Enantiomer A, 3-[(3,4-dimethoxyphenyl)cyclopentyl], 4-[(3-hydroxyphenol)methyl]oxolan-2-one], which “Cell death #1 (%)” value ([1]; MCF7, 24 hours, 0.06 μM) is on record?
Its value is −25.82%.

And the “Cell death #2 (%)” value ([1]; MCF7, 24 hours, 0.06 μM)?
The value was −37.36%.

And the “Cell death #3 (%)” value ([1]; MCF7, 24 hours, 0.06 μM)?
The value was −35.43%.

And the “Cell death (%) MEAN” value ([1]; MCF7, 24 hours, 0.06 μM)?
The value was −32.87%.

And the “Cell death #1 (%)” value ([1]; MCF7, 24 hours, 0.17 μM)?
Its value is −27.36%.

And the “Cell death #2 (%)” value ([1]; MCF7, 24 hours, 0.17 μM)?
Its value is −44.28%.

And the “Cell death #3 (%)” value ([1]; MCF7, 24 hours, 0.17 μM)?
The value was −55.05%.

What about the “Cell death (%) MEAN” value ([1]; MCF7, 24 hours, 0.17 μM) of the same molecule?
Its value is −42.23%.

And the “Cell death #1 (%)” value ([1]; MCF7, 24 hours, 0.51 μM)?
Its value is −57.74%.

And the “Cell death #2 (%)” value ([1]; MCF7, 24 hours, 0.51 μM)?
The value was −18.51%.

And the “Cell death #3 (%)” value ([1]; MCF7, 24 hours, 0.51 μM)?
Its value is −45.82%.

And the “Cell death (%) MEAN” value ([1]; MCF7, 24 hours, 0.51 μM)?
Its value is −40.69%.

And the “Cell death #1 (%)” value ([1]; MCF7, 24 hours, 1.54 μM)?
Its value is −48.89%.

And the “Cell death #2 (%)” value ([1]; MCF7, 24 hours, 1.54 μM)?
Its value is −51.59%.

And the “Cell death #3 (%)” value ([1]; MCF7, 24 hours, 1.54 μM)?
The value was −43.51%.

What about the “Cell death (%) MEAN” value ([1]; MCF7, 24 hours, 1.54 μM) of the same molecule?
Its value is −48.00%.

What about the “Cell death #1 (%)” value ([1]; MCF7, 24 hours, 4.63 μM) of the same molecule?
The value was −58.89%.

And the “Cell death #2 (%)” value ([1]; MCF7, 24 hours, 4.63 μM)?
Its value is −57.74%.

And the “Cell death #3 (%)” value ([1]; MCF7, 24 hours, 4.63 μM)?
The value was −34.66%.

And the “Cell death (%) MEAN” value ([1]; MCF7, 24 hours, 4.63 μM)?
Its value is −50.43%.

What about the “Cell death #1 (%)” value ([1]; MCF7, 24 hours, 13.89 μM) of the same molecule?
Its value is −61.20%.

What about the “Cell death #2 (%)” value ([1]; MCF7, 24 hours, 13.89 μM) of the same molecule?
The value was −35.05%.

And the “Cell death #3 (%)” value ([1]; MCF7, 24 hours, 13.89 μM)?
The value was −25.05%.

What about the “Cell death (%) MEAN” value ([1]; MCF7, 24 hours, 13.89 μM) of the same molecule?
The value was −40.43%.

What about the “Cell death #1 (%)” value ([1]; MCF7, 24 hours, 41.67 μM) of the same molecule?
The value was −83.51%.

What about the “Cell death #2 (%)” value ([1]; MCF7, 24 hours, 41.67 μM) of the same molecule?
The value was −78.89%.

And the “Cell death #3 (%)” value ([1]; MCF7, 24 hours, 41.67 μM)?
The value was −45.05%.

And the “Cell death (%) MEAN” value ([1]; MCF7, 24 hours, 41.67 μM)?
The value was −69.15%.

What about the “Cell death #1 (%)” value ([1]; MCF7, 24 hours, 125.00 μM) of the same molecule?
Its value is 98.41%.

And the “Cell death #2 (%)” value ([1]; MCF7, 24 hours, 125.00 μM)?
The value was 95.72%.

What about the “Cell death #3 (%)” value ([1]; MCF7, 24 hours, 125.00 μM) of the same molecule?
The value was 100.72%.

What about the “Cell death (%) MEAN” value ([1]; MCF7, 24 hours, 125.00 μM) of the same molecule?
The value was 98.29%.

What about the “Cell death #1 (%)” value ([1]; MCF7, 72 hours, 0.06 μM) of the same molecule?
Its value is −51.17%.

What about the “Cell death #2 (%)” value ([1]; MCF7, 72 hours, 0.06 μM) of the same molecule?
The value was −29.40%.

What about the “Cell death #3 (%)” value ([1]; MCF7, 72 hours, 0.06 μM) of the same molecule?
The value was −11.64%.

What about the “Cell death (%) MEAN” value ([1]; MCF7, 72 hours, 0.06 μM) of the same molecule?
Its value is −30.74%.

What about the “Cell death #1 (%)” value ([1]; MCF7, 72 hours, 0.17 μM) of the same molecule?
The value was −56.87%.

What about the “Cell death #2 (%)” value ([1]; MCF7, 72 hours, 0.17 μM) of the same molecule?
The value was −58.21%.

What about the “Cell death #3 (%)” value ([1]; MCF7, 72 hours, 0.17 μM) of the same molecule?
Its value is −50.17%.

What about the “Cell death (%) MEAN” value ([1]; MCF7, 72 hours, 0.17 μM) of the same molecule?
Its value is −55.08%.

And the “Cell death #1 (%)” value ([1]; MCF7, 72 hours, 0.51 μM)?
Its value is −79.98%.

And the “Cell death #2 (%)” value ([1]; MCF7, 72 hours, 0.51 μM)?
The value was −51.84%.

And the “Cell death #3 (%)” value ([1]; MCF7, 72 hours, 0.51 μM)?
The value was −72.61%.

And the “Cell death (%) MEAN” value ([1]; MCF7, 72 hours, 0.51 μM)?
The value was −68.15%.

What about the “Cell death #1 (%)” value ([1]; MCF7, 72 hours, 1.54 μM) of the same molecule?
Its value is −57.87%.

And the “Cell death #2 (%)” value ([1]; MCF7, 72 hours, 1.54 μM)?
Its value is −73.62%.

What about the “Cell death #3 (%)” value ([1]; MCF7, 72 hours, 1.54 μM) of the same molecule?
Its value is −58.88%.

What about the “Cell death (%) MEAN” value ([1]; MCF7, 72 hours, 1.54 μM) of the same molecule?
Its value is −63.46%.

And the “Cell death #1 (%)” value ([1]; MCF7, 72 hours, 4.63 μM)?
Its value is −90.37%.

What about the “Cell death #2 (%)” value ([1]; MCF7, 72 hours, 4.63 μM) of the same molecule?
Its value is −113.15%.

What about the “Cell death #3 (%)” value ([1]; MCF7, 72 hours, 4.63 μM) of the same molecule?
The value was −79.31%.

And the “Cell death (%) MEAN” value ([1]; MCF7, 72 hours, 4.63 μM)?
Its value is −94.28%.

And the “Cell death #1 (%)” value ([1]; MCF7, 72 hours, 13.89 μM)?
Its value is −43.13%.

What about the “Cell death #2 (%)” value ([1]; MCF7, 72 hours, 13.89 μM) of the same molecule?
Its value is −52.85%.

What about the “Cell death #3 (%)” value ([1]; MCF7, 72 hours, 13.89 μM) of the same molecule?
Its value is −46.15%.

What about the “Cell death (%) MEAN” value ([1]; MCF7, 72 hours, 13.89 μM) of the same molecule?
Its value is −47.38%.

And the “Cell death #1 (%)” value ([1]; MCF7, 72 hours, 41.67 μM)?
The value was 15.49%.

And the “Cell death #2 (%)” value ([1]; MCF7, 72 hours, 41.67 μM)?
The value was 4.10%.

What about the “Cell death #3 (%)” value ([1]; MCF7, 72 hours, 41.67 μM) of the same molecule?
The value was 2.76%.

And the “Cell death (%) MEAN” value ([1]; MCF7, 72 hours, 41.67 μM)?
The value was 7.45%.

And the “Cell death #1 (%)” value ([1]; MCF7, 72 hours, 125.00 μM)?
Its value is 99.92%.

What about the “Cell death #2 (%)” value ([1]; MCF7, 72 hours, 125.00 μM) of the same molecule?
The value was 99.92%.

And the “Cell death #3 (%)” value ([1]; MCF7, 72 hours, 125.00 μM)?
Its value is 99.58%.

What about the “Cell death (%) MEAN” value ([1]; MCF7, 72 hours, 125.00 μM) of the same molecule?
The value was 99.80%.

And the “breast cancer cell death as compared to enterolactone” value ([1]; MCF7, at higher concentrations, 24 hours and 72 hours post-treatment)?
Its value is “increased breast cancer cell death as compared to enterolactone”.

What about the “TP Concentration” value [2] of the same molecule?
The value was 34.8 µM.

What about the “TP concentration, fold lower than (+/−) enterolactone TP” value [2] of the same molecule?
The value was 4-6 fold.

What about the “dTP Concentration” value [2] of the same molecule?
Its value is 21.4 µM.

And the “dTP and TP concentrations compared with anti-cancer drugs tested in this assay” value [2]?
Its value is “higher than >90% of the anti-cancer drugs”.

And the “fold difference between dTP and TP” value [2]?
Its value is no more than 3 fold.

And the “similarity of dTP concentrations between all three compounds” value [2]?
Its value is no more than 2 fold.
